Reference: patent US6479435B1, “Diaryl ethers and processes for their preparation and herbicidal and desiccant compositions containing them” (ISK Americas Incorporated, priority 1997, dated 2002)

What was measured:
Format in all cases: in vivo
[1] = test system: velvetleaf (Abutilon theophrasti, ABUTH); test: Pre-emerge greenhouse herbicide test, phytotoxicity rating; details: 14 days after application, rating scale 0-100
How it was run: (§1)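 Seeds sown in sandy loam one day before track-sprayer application of acetone solutions at 125–1000 g ai/ha (187 l/ha), then surface-watered to incorporate and bottom-watered. Injury scored visually at 14 days on a 0–100 scale (0 no damage, 100 complete death).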

[2] = test system: ivyleaf morningglory (Ipomoea hederacea, IPOHE); test: as above; details: 14 days after application, rating scale 0-100
How it was run: as §1

[3] = test system: redroot pigweed (Amaranthus retroflexus, AMARE); test: as above; details: 14 days after application, rating scale 0-100
How it was run: as §1

[4] = test system: lambsquarters (Chenopodium album, CHEAL); test: as above; details: 14 days after application, rating scale 0-100
How it was run: as §1

[5] = test system: green foxtail (Setaria viridis, SETVI); test: as above; details: 14 days after application, rating scale 0-100
How it was run: as §1

[6] = test system: large crabgrass (Digitaria sanguinalis, DIGSA); test: as above; details: 14 days after application, rating scale 0-100
How it was run: as §1

[7] = test system: sicklepod (Cassia obtusifolia, CASOB); test: as above; details: 14 days after application, rating scale 0-100
How it was run: as §1

[8] = test system: common ragweed (Ambrosia artemisiifolia L., AMBEL); test: as above; details: 14 days after application, rating scale 0-100
How it was run: as §1

[9] = test system: barnyardgrass (Echinochloa crusgalli, ECHCG); test: as above; details: 14 days after application, rating scale 0-100
How it was run: as §1

[10] = test system: Johnsongrass (Sorghum halepense, SORHA); test: as above; details: 14 days after application, rating scale 0-100
How it was run: as §1

[11] = test system: soybean (Glycine max L., var. Pella 86, SOY); test: Pre-emerge greenhouse test, crop damage rating; design: key to SOY crop damage rating: 0 = no damage, 100 = complete death of all plants; details: 14 days after application, rating scale 0-100
How it was run: as §1

[12] = test system: field corn (Zea mays L., var. Dekalb 535, CORN); test: Post-emerge greenhouse test, crop damage rating; details: 14 days after application, scale 0-100
How it was run: (§2)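 Plants at the 2-3 leaf stage, sown 8-21 days earlier, were track-sprayed post-emergence with compound in acetone plus 0.25% v/v non-ionic surfactant at 63-1000 g ai/ha (187 l/ha). Damage was rated at 14 days on a 0-100 scale (0 none, 100 all plants dead), for both crop injury and weed control.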

[13] = test system: upland rice (Oryza sp., var.Tebonnet, RICE); test: Post-emerge greenhouse test, crop damage rating; details: 14 days after application, scale 0-100
How it was run: as §2

[14] = test system: field corn (Zea mays L., var. Dekalb 535, CORN); test: Pre-emerge greenhouse test, crop damage rating; details: 14 days after application, rating scale 0-100
How it was run: as §1

[15] = test system: upland rice (Oryza sp., var.Tebonnet, RICE); test: Pre-emerge greenhouse test, crop damage rating; details: 14 days after application, rating scale 0-100
How it was run: as §1

[16] = test system: common ragweed (Ambrosia artemisiifolia L., AMBEL); test: Post-emerge greenhouse herbicide test, phytotoxicity rating; details: 14 days after application, scale 0-100
How it was run: as §2

[17] = test system: soybean (Glycine max L., var. Pella 86, SOY); test: Post-emerge greenhouse test, crop damage rating; design: key to crop damage rating SOY: 0-100 scale: 0 = no damage, 100 = complete death of all plants; details: 14 days after application, scale 0-100
How it was run: as §2

[18] = test system: velvetleaf (Abutilon theophrasti, ABUTH); test: Post-emerge greenhouse herbicide test, phytotoxicity rating; details: 14 days after application, scale 0-100
How it was run: as §2

[19] = test system: ivyleaf morningglory (Ipomoea hederacea, IPOHE); test: as above; details: 14 days after application, scale 0-100
How it was run: as §2

[20] = test system: redroot pigweed (Amaranthus retroflexus, AMARE); test: as above; details: 14 days after application, scale 0-100
How it was run: as §2

[21] = test system: lambsquarters (Chenopodium album, CHEAL); test: as above; details: 14 days after application, scale 0-100
How it was run: as §2

[22] = test system: green foxtail (Setaria viridis, SETVI); test: as above; details: 14 days after application, scale 0-100
How it was run: as §2

[23] = test system: large crabgrass (Digitaria sanguinalis, DIGSA); test: as above; details: 14 days after application, scale 0-100
How it was run: as §2

[24] = test system: sicklepod (Cassia obtusifolia, CASOB); test: as above; details: 14 days after application, scale 0-100
How it was run: as §2

[25] = test system: barnyardgrass (Echinochloa crusgalli, ECHCG); test: as above; details: 14 days after application, scale 0-100
How it was run: as §2

[26] = test system: Johnsongrass (Sorghum halepense, SORHA); test: as above; details: 14 days after application, scale 0-100
How it was run: as §2

SMILES: O=c1n(-c2cc(Oc3ncccc3[N+](=O)[O-])c(Cl)cc2F)c(=S)n2n1CCCC2 [Compound 8-19]
- ABUTH phytotoxicity rating ([1]; Rate 125 g al/ha): 100
- ABUTH phytotoxicity rating ([1]; Rate 500 g al/ha): 100
- IPOHE phytotoxicity rating ([2]; Rate 125 g al/ha): 40
- IPOHE phytotoxicity rating ([2]; Rate 500 g al/ha): 90
- AMARE phytotoxicity rating ([3]; Rate 125 g al/ha): 100
- AMARE phytotoxicity rating ([3]; Rate 500 g al/ha): 100
- CHEAL phytotoxicity rating ([4]; Rate 125 g al/ha): 100
- CHEAL phytotoxicity rating ([4]; Rate 500 g al/ha): 100
- SETVI phytotoxicity rating ([5]; Rate 125 g al/ha): 100
- SETVI phytotoxicity rating ([5]; Rate 500 g al/ha): 100
- DIGSA phytotoxicity rating ([6]; Rate 125 g al/ha): 30
- DIGSA phytotoxicity rating ([6]; Rate 500 g al/ha): 100
- CASOB phytotoxicity rating ([7]; Rate 125 g al/ha): 20
- CASOB phytotoxicity rating ([7]; Rate 500 g al/ha): 100
- AMBEL phytotoxicity rating ([8]; Rate 125 g al/ha): 50
- AMBEL phytotoxicity rating ([8]; Rate 500 g al/ha): 100
- ECHCG phytotoxicity rating ([9]; Rate 125 g al/ha): 50
- ECHCG phytotoxicity rating ([9]; Rate 500 g al/ha): 95
- SORHA phytotoxicity rating ([10]; Rate 125 g al/ha): 80
- SORHA phytotoxicity rating ([10]; Rate 500 g al/ha): 95
- SOY crop damage rating ([11]; Rate 125 g al/ha): 20
- SOY crop damage rating ([11]; Rate 500 g al/ha): 0
- crop damage rating CORN ([12]; rate 63 g ai/ha): 30
- crop damage rating CORN ([12]; rate 500 g ai/ha): 30
- crop damage rating RICE ([13]; rate 63 g ai/ha): 40
- crop damage rating RICE ([13]; rate 500 g ai/ha): 60
- CORN crop damage rating ([14]; Rate 125 g al/ha): 15
- CORN crop damage rating ([14]; Rate 500 g al/ha): 30
- RICE crop damage rating ([15]; Rate 125 g al/ha): 50
- RICE crop damage rating ([15]; Rate 500 g al/ha): 80
- phytotoxicity rating AMBEL ([16]; rate 63 g ai/ha): 90
- phytotoxicity rating AMBEL ([16]; rate 500 g ai/ha): 90
- crop damage rating SOY ([17]; rate 63 g ai/ha): 65
- crop damage rating SOY ([17]; rate 500 g ai/ha): 50
- phytotoxicity rating ABUTH ([18]; rate 63 g ai/ha): 100
- phytotoxicity rating ABUTH ([18]; rate 500 g ai/ha): 100
- phytotoxicity rating IPOHE ([19]; rate 63 g ai/ha): 100
- phytotoxicity rating IPOHE ([19]; rate 500 g ai/ha): 100
- phytotoxicity rating AMARE ([20]; rate 63 g ai/ha): 100
- phytotoxicity rating AMARE ([20]; rate 500 g ai/ha): 100
- phytotoxicity rating CHEAL ([21]; rate 63 g ai/ha): 100
- phytotoxicity rating CHEAL ([21]; rate 500 g ai/ha): 100
- phytotoxicity rating SETVI ([22]; rate 63 g ai/ha): 60
- phytotoxicity rating SETVI ([22]; rate 500 g ai/ha): 90
- phytotoxicity rating DIGSA ([23]; rate 63 g ai/ha): 30
- phytotoxicity rating DIGSA ([23]; rate 500 g ai/ha): 30
- phytotoxicity rating CASOB ([24]; rate 63 g ai/ha): 70
- phytotoxicity rating CASOB ([24]; rate 500 g ai/ha): 90
- phytotoxicity rating ECHCG ([25]; rate 63 g ai/ha): 50
- phytotoxicity rating ECHCG ([25]; rate 500 g ai/ha): 50
- phytotoxicity rating SORHA ([26]; rate 63 g ai/ha): 50
- phytotoxicity rating SORHA ([26]; rate 500 g ai/ha): 50

SMILES: N#Cc1cccnc1Oc1cc(-n2c(=O)n3n(c2=S)CCCC3)c(F)cc1Cl [Compound 8-20]
- ABUTH phytotoxicity rating ([1]; Rate 125 g al/ha): 100
- ABUTH phytotoxicity rating ([1]; Rate 500 g al/ha): 100
- IPOHE phytotoxicity rating ([2]; Rate 125 g al/ha): 95
- IPOHE phytotoxicity rating ([2]; Rate 500 g al/ha): 100
- AMARE phytotoxicity rating ([3]; Rate 125 g al/ha): 100
- AMARE phytotoxicity rating ([3]; Rate 500 g al/ha): 100
- CHEAL phytotoxicity rating ([4]; Rate 125 g al/ha): 100
- CHEAL phytotoxicity rating ([4]; Rate 500 g al/ha): 100
- SETVI phytotoxicity rating ([5]; Rate 125 g al/ha): 95
- SETVI phytotoxicity rating ([5]; Rate 500 g al/ha): 100
- DIGSA phytotoxicity rating ([6]; Rate 125 g al/ha): 40
- DIGSA phytotoxicity rating ([6]; Rate 500 g al/ha): 100
- CASOB phytotoxicity rating ([7]; Rate 125 g al/ha): 90
- CASOB phytotoxicity rating ([7]; Rate 500 g al/ha): 100
- AMBEL phytotoxicity rating ([8]; Rate 125 g al/ha): 90
- AMBEL phytotoxicity rating ([8]; Rate 500 g al/ha): 100
- ECHCG phytotoxicity rating ([9]; Rate 125 g al/ha): 60
- ECHCG phytotoxicity rating ([9]; Rate 500 g al/ha): 80
- SORHA phytotoxicity rating ([10]; Rate 125 g al/ha): 40
- SORHA phytotoxicity rating ([10]; Rate 500 g al/ha): 90
- SOY crop damage rating ([11]; Rate 125 g al/ha): 20
- SOY crop damage rating ([11]; Rate 500 g al/ha): 25
- crop damage rating CORN ([12]; rate 63 g ai/ha): 15
- crop damage rating CORN ([12]; rate 500 g ai/ha): 20
- crop damage rating RICE ([13]; rate 63 g ai/ha): 15
- crop damage rating RICE ([13]; rate 500 g ai/ha): 60
- CORN crop damage rating ([14]; Rate 125 g al/ha): 5
- CORN crop damage rating ([14]; Rate 500 g al/ha): 10
- RICE crop damage rating ([15]; Rate 125 g al/ha): 20
- RICE crop damage rating ([15]; Rate 500 g al/ha): 40
- phytotoxicity rating AMBEL ([16]; rate 63 g ai/ha): 90
- phytotoxicity rating AMBEL ([16]; rate 500 g ai/ha): 100
- crop damage rating SOY ([17]; rate 63 g ai/ha): 90
- crop damage rating SOY ([17]; rate 500 g ai/ha): 100
- phytotoxicity rating ABUTH ([18]; rate 63 g ai/ha): 100
- phytotoxicity rating ABUTH ([18]; rate 500 g ai/ha): 100
- phytotoxicity rating IPOHE ([19]; rate 63 g ai/ha): 100
- phytotoxicity rating IPOHE ([19]; rate 500 g ai/ha): 100
- phytotoxicity rating AMARE ([20]; rate 63 g ai/ha): 100
- phytotoxicity rating AMARE ([20]; rate 500 g ai/ha): 100
- phytotoxicity rating CHEAL ([21]; rate 63 g ai/ha): 95
- phytotoxicity rating CHEAL ([21]; rate 500 g ai/ha): 100
- phytotoxicity rating SETVI ([22]; rate 63 g ai/ha): 70
- phytotoxicity rating SETVI ([22]; rate 500 g ai/ha): 0
- phytotoxicity rating DIGSA ([23]; rate 63 g ai/ha): 30
- phytotoxicity rating DIGSA ([23]; rate 500 g ai/ha): 30
- phytotoxicity rating CASOB ([24]; rate 63 g ai/ha): 90
- phytotoxicity rating CASOB ([24]; rate 500 g ai/ha): 100
- phytotoxicity rating ECHCG ([25]; rate 63 g ai/ha): 20
- phytotoxicity rating ECHCG ([25]; rate 500 g ai/ha): 40
- phytotoxicity rating SORHA ([26]; rate 63 g ai/ha): 90
- phytotoxicity rating SORHA ([26]; rate 500 g ai/ha): 100
